According to patent US20220323406A1, “METHODS AND COMPOSITIONS FOR DIFFERENTIATING STEM CELLS” (Massachusetts Institute of Technology, priority 2019, published 2022):

Tests used:
[1] = system: ENR+CD organoids (ISC to Paneth cell differentiation); assay: Primary screen: CCh-stimulated lysozyme secretion LYZ.S, 2.5-D 384-well ENR+CD organoid differentiation; format: cell-based, mouse; details: primary screen
Excerpt: (§1) High-throughput screening.

ENR+CD organoids = assay: Primary screen: ATP (CellTiter-Glo 3D, CTG) cell number/viability, 2.5-D 384-well ENR+CD organoids; details: primary screen;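 also: compounds given at plating and again on day 3 over a 6-day differentiation from ENR+CV stem-cell-enriched precursors, ATP measured on day 6, plate median as control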
[2] = system: ENR+CD organoids (ISC to Paneth cell differentiation); assay: Primary screen: basal (non-stimulated) lysozyme secretion LYZ.NS, 2.5-D 384-well ENR+CD organoid differentiation; format: cell-based, mouse
Excerpt: as §1

[3] = dose 0.08 uM, FC vs plate median
[4] = dose 0.40 uM, FC vs plate median
[5] = dose 2.00 uM, FC vs plate median
[6] = dose 10.00 uM, FC vs plate median

Compound	Z.CTG (standard z score) (ENR+CD organoids; dose 0.08 uM)	Z.CTG (standard z score) (ENR+CD organoids; dose 0.40 uM)	Z.CTG (standard z score) (ENR+CD organoids; dose 2.00 uM)	Z.CTG (standard z score) (ENR+CD organoids; dose 10.00 uM)	Z.LYZ.NS (standard z score) ([2]; primary screen, dose 0.08 uM)	Z.LYZ.NS (standard z score) ([2]; primary screen, dose 0.40 uM)	Z.LYZ.NS (standard z score) ([2]; primary screen, dose 2.00 uM)	Z.LYZ.NS (standard z score) ([2]; primary screen, dose 10.00 uM)	Dose.FC.LYZ.S ([1]; dose 0.08 uM)	Dose.FC.LYZ.S ([1]; dose 0.40 uM)	Dose.FC.LYZ.S ([1]; dose 2.00 uM)	Dose.FC.LYZ.S ([1]; dose 10.00 uM)	Dose.FC.CTG (ENR+CD organoids; dose 0.08 uM)	Dose.FC.CTG (ENR+CD organoids; dose 0.40 uM)	Dose.FC.CTG (ENR+CD organoids; dose 2.00 uM)	Dose.FC.CTG (ENR+CD organoids; dose 10.00 uM)	Dose.FC.LYZ.NS ([2]; primary screen, dose 0.08 uM)	Dose.FC.LYZ.NS ([2]; primary screen, dose 0.40 uM)	Dose.FC.LYZ.NS ([2]; primary screen, dose 2.00 uM)	Dose.FC.LYZ.NS ([2]; primary screen, dose 10.00 uM)	also measured
Cc1cccc(-c2nn3c(c2-c2ccnc4ccc(C(N)=O)cc24)CCC3)n1 [LY2157299]	0.218	0.328	0.041	0.226	1.973	1.221	0.799	1.408	–	–	–	–	–	–	–	–	–	–	–	–	Dose.FC.LYZ.S (log2 fold change) ([1]; dose 0.08 uM): 0.187; Dose.FC.LYZ.S (log2 fold change) ([1]; dose 0.40 uM): 0.199; Dose.FC.LYZ.S (log2 fold change) ([1]; dose 2.00 uM): 0.113; Dose.FC.LYZ.S (log2 fold change) ([1]; dose 10.00 uM): 0.223; Dose.FC.CTG (log2 fold change) (ENR+CD organoids; dose 0.08 uM): 0.091; Dose.FC.CTG (log2 fold change) (ENR+CD organoids; dose 0.40 uM): 0.137; Dose.FC.CTG (log2 fold change) (ENR+CD organoids; dose 2.00 uM): 0.017; Dose.FC.CTG (log2 fold change) (ENR+CD organoids; dose 10.00 uM): 0.095; Dose.FC.LYZ.NS (log2 fold change) ([2]; primary screen, dose 0.08 uM): 0.227; Dose.FC.LYZ.NS (log2 fold change) ([2]; primary screen, dose 0.40 uM): 0.140; Dose.FC.LYZ.NS (log2 fold change) ([2]; primary screen, dose 2.00 uM): 0.092; Dose.FC.LYZ.NS (log2 fold change) ([2]; primary screen, dose 10.00 uM): 0.162
VU 0364770	0.031	0.204	0.199	−0.246	1.350	0.736	1.020	0.884	0.082 log2 fold change	0.125 log2 fold change	0.139 log2 fold change	0.066 log2 fold change	0.013 log2 fold change	0.085 log2 fold change	0.083 log2 fold change	−0.103 log2 fold change	0.155 log2 fold change	0.085 log2 fold change	0.117 log2 fold change	0.102 log2 fold change	–
Cc1cc(Nc2ncc(Cl)c(Nc3ccccc3S(=O)(=O)C(C)C)n2)c(OC(C)C)cc1C1CCNCC1 [LDK378]	–	–	–	–	0.534	−0.465	−1.702	−2.939	–	–	–	–	–	–	–	–	–	–	–	–	Dose.FC.LYZ.S (log2 fold change) ([1]; dose 0.08 uM): 0.118; Dose.FC.LYZ.S (log2 fold change) ([1]; dose 0.40 uM): −0.047; Dose.FC.LYZ.S (log2 fold change) ([1]; dose 2.00 uM): −0.281; Dose.FC.LYZ.S (log2 fold change) ([1]; dose 10.00 uM): −0.487; Dose.FC.CTG (log2 fold change) (ENR+CD organoids; dose 0.08 uM): 0.135; Dose.FC.CTG (log2 fold change) (ENR+CD organoids; dose 0.40 uM): 0.004; Dose.FC.CTG (log2 fold change) (ENR+CD organoids; dose 2.00 uM): −0.364; Dose.FC.CTG (log2 fold change) (ENR+CD organoids; dose 10.00 uM): −1.292; Dose.FC.LYZ.NS (log2 fold change) ([2]; primary screen, dose 0.08 uM): 0.061; Dose.FC.LYZ.NS (log2 fold change) ([2]; primary screen, dose 0.40 uM): −0.053; Dose.FC.LYZ.NS (log2 fold change) ([2]; primary screen, dose 2.00 uM): −0.195; Dose.FC.LYZ.NS (log2 fold change) ([2]; primary screen, dose 10.00 uM): −0.338
O=C(N/N=C/c1ccc(O)c(O)c1)c1cc2ccccc2cc1O [Dynasore]	–	–	–	–	–	–	–	–	0.078 log2 fold change	0.122 log2 fold change	−0.024 log2 fold change	0.041 log2 fold change	−0.248 log2 fold change	−0.253 log2 fold change	−0.152 log2 fold change	−0.011 log2 fold change	0.049 log2 fold change	−0.020 log2 fold change	0.036 log2 fold change	0.048 log2 fold change	Z.LYZ.NS ([2]; primary screen, standard z score, dose 0.08 uM): 0.431; Z.LYZ.NS ([2]; primary screen, standard z score, dose 0.40 uM): −0.176; Z.LYZ.NS ([2]; primary screen, standard z score, dose 2.00 uM): 0.314; Z.LYZ.NS ([2]; primary screen, standard z score, dose 10.00 uM): 0.414
O=C(Nc1cccc(C(F)(F)F)c1)Nc1cc(S(=O)(=O)NC2CC2)ccc1-c1ccsc1 [AGI-6780]	0.671	0.551	0.713	0.256	0.597	0.268	0.374	−0.785	0.095 log2 fold change	0.156 log2 fold change	0.055 log2 fold change	−0.054 log2 fold change	0.281 log2 fold change	0.231 log2 fold change	0.298 log2 fold change	0.107 log2 fold change	0.069 log2 fold change	0.031 log2 fold change	0.043 log2 fold change	−0.090 log2 fold change	–
Cc1cc(OCc2nnc(SC3CCCC3)n2-c2cccnc2)ccc1-c1ccc(S(C)(=O)=O)cc1 [NMS-873]	–	–	–	–	–	–	–	–	–	–	–	–	–	–	–	–	–	–	–	–	Dose.FC.LYZ.S [1, 3]: 0.069 log2 fold change; Dose.FC.LYZ.S [1, 4]: −0.228 log2 fold change; Dose.FC.LYZ.S [1, 5]: −0.343 log2 fold change; Dose.FC.LYZ.S [1, 6]: −0.375 log2 fold change; Dose.FC.CTG (ENR+CD organoids; [3]): 0.174 log2 fold change; Dose.FC.CTG (ENR+CD organoids; [4]): −0.051 log2 fold change; Dose.FC.CTG (ENR+CD organoids; [5]): −0.910 log2 fold change; Dose.FC.CTG (ENR+CD organoids; [6]): −1.542 log2 fold change; Z.LYZ.NS ([2]; primary screen, dose 0.08 uM, standard z score): 0.853; Z.LYZ.NS ([2]; primary screen, dose 0.40 uM, standard z score): −1.537; Z.LYZ.NS ([2]; primary screen, dose 2.00 uM, standard z score): −2.352; Z.LYZ.NS ([2]; primary screen, dose 10.00 uM, standard z score): −2.368; Dose.FC.LYZ.NS ([2]; primary screen; dose 0.08 uM; FC vs plate median): 0.098 log2 fold change; Dose.FC.LYZ.NS ([2]; primary screen; dose 0.40 uM; FC vs plate median): −0.177 log2 fold change; Dose.FC.LYZ.NS ([2]; primary screen; dose 2.00 uM; FC vs plate median): −0.270 log2 fold change; Dose.FC.LYZ.NS ([2]; primary screen; dose 10.00 uM; FC vs plate median): −0.272 log2 fold change
